Measured values published in patent publication US20020026053A1, “Novel 3-(substituted) -2- indolinones compounds and use thereof as inhibitors of protein kinase activity” (priority 1997, published 2002).
“And” between values parts separate entries of the source, which are not always exact repeats. Equal entries are not always repeated.

System: FLK-1 receptor
Assay: FLK-1 Assay (cellular/catalytic ELISA, VEGF-stimulated phosphotyrosine)
Format: cell-based
Design: concentration or dose not given beside the values
Protocol: The cellular/catalytic assays described herein are performed in an ELISA format. The general procedure is as follows: a compound is introduced to cells expressing the test kinase, either naturally or recombinantly, for a selected period of time after which, if the test kinase is a receptor, a ligand known to activate the receptor is added. The cells are lysed and the lysate is transferred to the wells of an ELISA plate previously coated with a specific antibody recognizing the substrate of the enzymatic phosphorylation reaction. Non-substrate components of the cell lysate are washed away and the amount of phosphorylation on the substrate is detected with an antibody specifically recognizing phosphotyrosine compared with control cells that were not contacted with a test compound.
An ELISA assay is conducted to measure the kinase activity of the FLK-1 receptor and more specifically, the inhibition or activation of TK activity on the FLK-1 receptor. Specifically, the following assay can be conducted to measure kinase activity of the FLK-1 receptor in cells genetically engineered to express Flk-1.
a. Corning 96-well ELISA plates (Corning Catalog No. 25805-96);
b. Cappel goat anti-rabbit IgG (catalog no. 55641);
c. PBS (Gibco Catalog No. 450-1300EB);
d. TBSW Buffer (50 mM Tris (pH 7.2), 150 mM NaCl and 0.1% Tween-20);
e. Ethanolamine stock (10% ethanolamine (pH 7.0), stored at 4° C.);
f. HNTG buffer (20 mM HEPES buffer (pH 7.5), 150 mM NaCl, 0.2% Triton X-100, and 10% glycerol);
g. EDTA (0.5 M (pH 7.0) as a 100× stock);
h. Sodium orthovanadate (0.5 M as a 100× stock);
i. Sodium pyrophosphate (0.2 M as a 100× stock);
j. NUNC 96 well V bottom polypropylene plates (Applied Scientific Catalog No. AS-72092);
k. NIH3T3 C7#3 Cells (FLK-1 expressing cells);
l. DMEM with 1× high glucose L-Glutamine (catalog No. 11965-050);
n. L-glutamine, Gibco (catalog no. 25030-016);
o. VEGF, PeproTech, Inc. (catalog no. 100-20)(kept as 1 μg/100 μl stock in Milli-Q dH2O and stored at −20° C.;
p. Affinity purified anti-FLK-1 antiserum;
q. UB40 monoclonal antibody specific for phosphotyrosine (see, Fendley, et al., 1990, Cancer Research 50:1550-1558);
r. EIA grade Goat anti-mouse IgG-POD (BioRad catalog no. 172-1011);
s. 2,2-azino-bis(3-ethylbenz-thiazoline-6-sulfonic acid (ABTS) solution (100 mM citric acid (anhydrous), 250 mM Na2HPO4 (pH 4.0), 0.5 mg/ml ABTS (Sigma catalog no. A-1888)), solution should be stored in dark at 4° C. until ready for use;
t. H2O2 (30% solution) (Fisher catalog no. H325);
u. ABTS/ H2O2 (15 ml ABTS solution, 2 μl H2O2) prepared 5 minutes before use and left at room temperature;
v. 0.2 M HCl stock in H2O;
w. dimethylsulfoxide (100%) (Sigma Catalog No. D-8418); and
y. Trypsin-EDTA (Gibco BRL Catalog No. 25200-049).
1. Coat Corning 96-well ELISA plates with 1.0 μg per well Cappel Anti-rabbit IgG antibody in 0.1M Na2CO3 pH 9.6. Bring final volume to 150 μl per well. Coat plates overnight at 4° C. Plates can be kept up to two weeks when stored at 4° C.
2. Grow cells in Growth media (DMEM, supplemented with 2.0 mM L-Glutamine, 10% FBS) in suitable culture dishes until confluent at 37° C., 5% CO2.
3. Harvest cells by trypsinization and seed in Corning 25850 polystyrene 96-well round bottom cell plates, 25,000 cells/well in 200 μl of growth media.
4. Grow cells at least one day at 37° C., 5% CO2.
5. Wash cells with D-PBS 1×.
6. Add 200 μl/well of starvation media (DMEM, 2.0 mM 1-Glutamine, 0.1% FBS). Incubate overnight at 37° C., 5% CO2.
7. Dilute Compounds 1:20 in polypropylene 96 well plates using starvation media. Dilute dimethylsulfoxide 1:20 for use in control wells.
8. Remove starvation media from 96 well cell culture plates and add 162 μl of fresh starvation media to each well.
9. Add 18 μl of 1:20 diluted compound dilution (from step 7) to each well plus the 1:20 dimethylsulfoxide dilution to the control wells (+/− VEGF), for a final dilution of 1:200 after cell stimulation. Final dimethylsulfoxide is 0.5%. Incubate the plate at 37° C., 5% CO2 for two hours.
10. […]

In order of falling “Flk Kinase % Inhibition (P.110)” value:
1. Cc1c(Br)cc(Br)c2c1C(=Cc1coc3ccc([N+](=O)[O-])cc3c1=O)C(=O)N2 [10731/H07]  74.5%
2. Cc1c(Br)cc(Br)c2c1C(=Cc1cc(Br)ccc1O)C(=O)N2 [10733/H09]  44.8%
3. Cc1c(Br)cc(Br)c2c1C(=Cc1c[nH]c(=O)[nH]c1=O)C(=O)N2 [10731/H08]  31.4%
4. COc1c([N+](=O)[O-])cc(C=C2C(=O)Nc3c(Br)cc(Br)c(C)c32)cc1C(C)(C)C [10733/H03]  31.2%
5. COc1c(C)cc(C=C2C(=O)Nc3c(Br)cc(Br)c(C)c32)cc1C [10733/H06]  30.0%
6. COc1c(O)ccc(C=C2C(=O)Nc3c(Br)cc(Br)c(C)c32)c1[N+](=O)[O-] [10733/H11]  29.1%
7. Cc1ccc2occ(C=C3C(=O)Nc4c(Br)cc(Br)c(C)c43)c(=O)c2c1 [10731/H06]  28.7%
8. COc1ccc(C=C2C(=O)Nc3c(Br)cc(Br)c(C)c32)c(OC)c1OC [10730/H02]  21.2%
9. CCn1c2ccccc2c2cc(C=C3C(=O)Nc4c(Br)cc(Br)c(C)c43)ccc21 [10731/H02]  19.7%
10. COC1CC(C=C2C(=O)Nc3c(Br)cc(Br)c(C)c32)C(OC)O1 (stereo not drawn) [10730/H10]  18.3%
11. COc1ccc(C=C2C(=O)Nc3c(Br)cc(Br)c(C)c32)c2ccccc12 [10729/H03]  18.3%
12. Cc1c(Br)cc(Br)c2c1C(=Cc1cc(C(C)(C)C)c(OCc3ccccc3)c(C(C)(C)C)c1)C(=O)N2 [10733/H05]  17.7%
13. C=C(C)C1CC=C(C=C2C(=O)Nc3c(Br)cc(Br)c(C)c32)CC1 (stereo not drawn) [10731/H04]  16.4%
14. COc1ccc2[nH]cc(C=C3C(=O)Nc4c(Br)cc(Br)c(C)c43)c2c1 [10731/H09]  15.8%
15. Cc1cc(C=C2C(=O)Nc3c(Br)cc(Br)c(C)c32)oc1C [10730/H11]  13.9%
16. COc1ccc(C=C2C(=O)Nc3c(Br)cc(Br)c(C)c32)cc1 [10726/H11]  12.9%
17. COc1ccc(C=C2C(=O)Nc3c(Br)cc(Br)c(C)c32)cc1C(C)(C)C [10732/H05]  12.8%
18. Cc1c(Br)cc(Br)c2c1C(=Cc1cc(Br)c(OCc3ccccc3)c(C(C)(C)C)c1)C(=O)N2 [10732/H08]  12.6%
19. Cc1c(Br)cc(Br)c2c1C(=Cc1c[nH]c3ccccc13)C(=O)N2 [10717/H06]  12.5%
20. COc1cc(C=C2C(=O)Nc3c(Br)cc(Br)c(C)c32)cc(OC)c1OC [10730/H04]  12.1%
21. COc1cc(OC)c(OC)cc1C=C1C(=O)Nc2c(Br)cc(Br)c(C)c21 [10730/H03]  11.5%
22. CCc1ccc(C=C2C(=O)Nc3c(Br)cc(Br)c(C)c32)s1 [10726/H10]  11.0%
23. Cc1c(Br)cc(Br)c2c1C(=Cc1cccc(Oc3ccccc3)c1)C(=O)N2 [10729/H06]  11.0%
24. Cc1c(Br)cc(Br)c2c1C(=Cc1ccccn1)C(=O)N2 [10729/H07]  9.9%
25. Cc1c(Br)cc(Br)c2c1C(=Cc1cc3ccccc3nc1Cl)C(=O)N2 [10730/H08]  9.2%
26. Cc1c(Br)cc(Br)c2c1C(=CC1C=CCCC1)C(=O)N2 (stereo not drawn) [10729/H11]  8.9%
27. Cc1c(Br)cc(Br)c2c1C(=Cc1ccc3c(c1)Cc1ccccc1-3)C(=O)N2 [10728/H06]  7.9%
28. COc1c(I)cc(C=C2C(=O)Nc3c(Br)cc(Br)c(C)c32)cc1C(C)(C)C [10732/H11]  6.4%
29. Cc1c(Br)cc(Br)c2c1C(=Cc1ccccc1Sc1ccc(Cl)cc1)C(=O)N2 [10727/H05]  5.5%
30. COc1c(Cl)cc(C=C2C(=O)Nc3c(Br)cc(Br)c(C)c32)cc1C(C)(C)C [10732/H09]  5.4%
31. Cc1c(Br)cc(Br)c2c1C(=Cc1ccc(N3CCCC3)cc1)C(=O)N2 [10729/H10]  5.3%
32. Cc1c(Br)cc(Br)c2c1C(=Cc1ccc(F)cc1)C(=O)N2 [10717/H05]  5.0%
33. COc1cc(Br)cc(C=C2C(=O)Nc3c(Br)cc(Br)c(C)c32)c1O [10733/H08]  4.8%
34. CCc1cc(CC)c(C=C2C(=O)Nc3c(Br)cc(Br)c(C)c32)[nH]1 [10727/H03]  4.3%
35. COc1cccc(C=C2C(=O)Nc3c(Br)cc(Br)c(C)c32)c1OC [10727/H11]  3.7%
36. COc1cc(C=C2C(=O)Nc3c(Br)cc(Br)c(C)c32)cc2c1OCO2 [10728/H11]  3.3%
37. Cc1c(Br)cc(Br)c2c1C(=Cc1cccc(C#N)c1)C(=O)N2 [10727/H08]  2.9%
38. Cc1c(Br)cc(Br)c2c1C(=Cc1cc(Cl)cc(Br)c1O)C(=O)N2 [10727/H04]  1.8%
39. Cc1c(Br)cc(Br)c2c1C(=C1C(=O)Nc3ccccc31)C(=O)N2 [10726/H09]  1.5%
40. Cc1ccc(C=C2C(=O)Nc3c(Br)cc(Br)c(C)c32)s1 [10717/H07]  1.1%
41. Cc1c(Br)cc(Br)c2c1C(=Cc1c(F)cccc1C(F)(F)F)C(=O)N2 [10728/H09]  0.7%
42. CCN(CC)c1ccc(C=C2C(=O)Nc3c(Br)cc(Br)c(C)c32)cc1 [10727/H02]  −1.2%
43. Cc1c(Br)cc(Br)c2c1C(=Cc1cc(I)c(OCc3ccccc3)c(C(C)(C)C)c1)C(=O)N2 [10733/H02]  −2.0%
44. COc1cccc(OC)c1C=C1C(=O)Nc2c(Br)cc(Br)c(C)c21 [10728/H03]  −2.1%
45. Cc1c(Br)cc(Br)c2c1C(=Cc1ccccc1OCC(=O)O)C(=O)N2 [10728/H10]  −3.8%
46. COc1cc(C=C2C(=O)Nc3c(Br)cc(Br)c(C)c32)cc(OC)c1 [10728/H04]  −4.3%
47. Cc1c(Br)cc(Br)c2c1C(=Cc1cc3c(cc1Cl)OCO3)C(=O)N2 [10727/H06]  −4.4%
48. Cc1c(Br)cc(Br)c2c1C(=Cc1ccc(Br)o1)C(=O)N2 [10726/H05]  −6.1%
49. Cc1c(Br)cc(Br)c2c1C(=Cc1cc(O)ccc1O)C(=O)N2 [10727/H10]  −8.3%
50. COc1c(C(C)(C)C)cc(C=C2C(=O)Nc3c(Br)cc(Br)c(C)c32)cc1C(C)(C)C [10733/H04]  −8.5%
51. Cc1c(Br)cc(Br)c2c1C(=Cc1cc(O)c3c(c1O)CCCC3)C(=O)N2 [10726/H07]  −9.5%
52. COc1ccc(OC)c(C=C2C(=O)Nc3c(Br)cc(Br)c(C)c32)c1 [10728/H02]  −13.3%
53. Cc1c(Br)cc(Br)c2c1C(=C1C(=O)Nc3ccc(F)cc31)C(=O)N2 [10726/H08]  −15.0%

With `COc1cc(N(C)C)ccc1C=C1C(=O)Nc2c(Br)cc(Br)c(C)c21` [10728/H05] the “Flk Kinase % Inhibition (P.110)” value was 1.1% and −4.4%.
